From paper PMC5766233, “Ternary copper(II) complex: NCI60 screening, toxicity studies, and evaluation of efficacy in xenograft models of nasopharyngeal carcinoma” (PLoS ONE, 2018)
pIC50: −log10 of the molar value.

Legend:
[1] = Subacute toxicity, daily for 14 days; type: in vivo, NOD scid gamma female mice; conditions: 4 and 6 mg/kg ip daily for 14 days
Protocol: For subacute toxicity study, three groups of three NSG female mice each were used. Using the formula from NCI, the low dose and high dose were calculated from the MTD value (17.5 mg/kg estimated above) and these were 4 and 6 mg/kg respectively. Mice in the first two groups were administered intraperitoneally with Cu(II) complex at doses of 4 and 6 mg/kg daily respectively for 14 days, while those in the control group received an equal volume of normal saline. […] No mortality was observed during the course of the study. All mice remained healthy with no obvious differences being noted in the general behavior, physical activities or clinical conditions with respect to the control group. The accumulative intraperitoneal doses administered in these groups were 56.0 and 84.0 mg/kg of the Cu(II) complex, respectively.
Mice were divided into three groups of 3 mice each. The Cu(II) complex was administered intraperitoneally at the doses of 4 and 6 mg/kg daily for 14 days, while the control group received an equal volume of normal saline. […] Signs of toxicity, mortality, body weight, food consumption and water intake were monitored and recorded daily. Adverse effects such as rapid or consistent body weight loss reaching 20%, blood stained discharges, labored breathing, paralysis, anemia, and other signs and symptoms mentioned in the acute toxicity study, was used as criteria for termination. At the end of the experiment, the mice were sacrificed and the major organs including the heart, lung, liver, kidney and spleen were examined for gross and histopathological changes.

[2] = tested on: cervical, ovarian, lung, breast, lymphoma, leukemia, colorectal carcinoma and NPC cell lines; parameters: method as in PMID 24549332; conditions: 24 h; HeLa, SKOV3, A549, PC9, MCF7, Namalwa, HL60, SW480, SW48, HCT118, HONE1, HK1, C666-1; cited from earlier work
[3] = tested on: rat primary hepatocytes; test: Cytotoxicity in rat primary hepatocytes (resazurin); conditions: 72 h
[4] = tested on: HK1 xenograft; test: In vivo efficacy in HK1 xenograft model; parameters: species or system NOD scid gamma female mice
Protocol: Recognizing the relative lack of treatment options for advanced NPC compared to other major cancers in Malaysia and based on our previous finding of the anticancer activity against NPC cells, we proceeded to validate the anticancer properties of the Cu(II) complex in vivo using NPC xenograft models. To test the compound in vivo in the preclinical models, two pilot studies were carried out using the Cu(II) complex. First, the effects of the Cu(II) complex were investigated on HK1 xenograft bearing mice at three different dosage regimens (4, 6 and 8 mg/kg). […] Even though treatment with Cu(II) complex at 8 mg/kg every other day up to 3 doses was effective, 2 out of 7 mice were found deadand the experiment had to be terminated.
2.0 x 10^6 HK1 or C666-1-GFP-Luc2 cells in 100 μl RPMI media mixed with matrigel (BD Matrigel Basement Membrane Matrix; BD Biosciences, Bedford, MA, USA) was inoculated subcutaneously into the right lower flank of the NSG mice. Tumor growth was monitored and measured every other day using a digital caliper (Mitutoyo America Corporation, Aurora, Illinois, USA) until they reached 100–250 mm^3. Then, the mice were randomly assigned into treatment groups. The mice bearing HK1 xenograft tumor were divided into 3 treatment groups and a control (normal saline) group. The first batch received normal saline (one injection daily for 5 days), 6 mg/kg (one injection daily for 5 days) and 8 mg/kg (one injection every other day for 3 doses) of Cu(II) complex while the second batch received normal saline (one injection daily for 4 days), 4 mg/kg (one injection daily for 4 days), 6 mg/kg (one injection daily for 4 days) and 8 mg/kg (one injection every other day for 2 doses) of Cu(II) complex via intraperitoneal route.

[5] = biological target: T1, CYP 2D6 (Homo sapiens, UniProt P10635); test: CYP450 inhibition assay, pooled human liver microsomes; type: in vitro ADME; conditions: probe dextromethorphan
T1 construct: tissue Sekisui Xeno Tech, LLC; host or cells: pooled human liver microsomes
Protocol: (§1) In the CYP inhibition assay, human liver microsomes were incubated with the Cu(II) complex or reference standard. The inhibitory effects of these compounds were investigated against the major CYP isoforms namely 1A2, 2C9, 2C19, 2D6, 2B6, 2C8 and 3A4 with their respective isoform probe substrates in one reaction mixture (pooled probe substrate format using LC-MS/MS).
(§2) Pooled human liver microsomes (Sekisui Xeno Tech, LLC., Kansas City, KS, USA) were incubated with different concentrations of Cu(II) complex or reference standards in buffer containing 0.1% DMSO for 10 min at 37°C and the residual enzyme activity was measured using pooled probe substrates method by pooled LC-MS/MS. Briefly, incubation mixtures were prepared in a total volume of 200 μL with final component concentrations as follows: 0.1 M potassium phosphate buffer (pH 7.4), 1.5 mM NADPH, and 0.25 mg/ml HLM. […] After 20 min of incubation, the reactions were terminated by addition of 200 μL ice-cold acetonitrile (Rankem, Avantor Performance Materials India Limited, Andhra Pradesh, India) containing telmisartan and carbamazepine as internal standards (all probe substrates and standards were from Sigma Aldrich). Each reaction mixture was centrifuged at 3,500 rpm for 5 min and the supernatant was subjected to LC-MS/MS analysis. The percent inhibition was calculated using the following equation: %Inhibition=100‑[(activityintestwells/activityinbasalcontrolwells)×100]

[6] = biological target: T2, CYP 3A4 (Homo sapiens, UniProt P08684); test: as above; type: in vitro ADME; conditions: probe midazolam
T2 construct: tissue Sekisui Xeno Tech, LLC; host or cells: pooled human liver microsomes
Protocol: as §1, §2

[7] = biological target: T3, CYP 1A2 (Homo sapiens, UniProt P05177); test: as above; type: in vitro ADME; conditions: probe phenacetin
T3 construct: tissue Sekisui Xeno Tech, LLC; host or cells: pooled human liver microsomes
T3 sequence (P05177 1-516): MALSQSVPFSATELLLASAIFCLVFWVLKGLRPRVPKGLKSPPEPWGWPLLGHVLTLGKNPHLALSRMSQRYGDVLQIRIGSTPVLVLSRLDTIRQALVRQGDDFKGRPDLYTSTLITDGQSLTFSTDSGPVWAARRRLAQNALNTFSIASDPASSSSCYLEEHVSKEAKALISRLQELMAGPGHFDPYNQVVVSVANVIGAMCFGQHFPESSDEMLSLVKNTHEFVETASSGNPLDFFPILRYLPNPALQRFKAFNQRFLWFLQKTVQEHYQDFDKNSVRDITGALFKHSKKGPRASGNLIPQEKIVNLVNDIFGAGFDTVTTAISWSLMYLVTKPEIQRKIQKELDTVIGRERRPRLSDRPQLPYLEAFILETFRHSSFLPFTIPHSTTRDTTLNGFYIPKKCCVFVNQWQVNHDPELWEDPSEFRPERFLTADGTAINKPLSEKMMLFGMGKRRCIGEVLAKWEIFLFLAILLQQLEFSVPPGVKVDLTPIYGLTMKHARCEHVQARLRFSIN
Protocol: as §1, §2

T1 sequence (P10635 whole entry): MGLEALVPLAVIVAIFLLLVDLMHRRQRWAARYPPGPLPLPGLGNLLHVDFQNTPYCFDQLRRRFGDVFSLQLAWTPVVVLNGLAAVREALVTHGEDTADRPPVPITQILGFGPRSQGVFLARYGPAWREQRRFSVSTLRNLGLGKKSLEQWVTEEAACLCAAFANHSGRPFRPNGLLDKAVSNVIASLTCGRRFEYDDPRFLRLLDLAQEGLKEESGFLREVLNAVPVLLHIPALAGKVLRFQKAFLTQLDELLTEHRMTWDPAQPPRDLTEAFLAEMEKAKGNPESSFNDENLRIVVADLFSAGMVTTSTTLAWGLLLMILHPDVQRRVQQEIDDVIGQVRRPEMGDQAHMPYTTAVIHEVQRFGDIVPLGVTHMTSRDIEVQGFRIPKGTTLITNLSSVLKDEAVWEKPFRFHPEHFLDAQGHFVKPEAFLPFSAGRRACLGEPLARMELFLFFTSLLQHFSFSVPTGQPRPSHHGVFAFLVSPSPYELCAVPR
T2 sequence (P08684 whole entry): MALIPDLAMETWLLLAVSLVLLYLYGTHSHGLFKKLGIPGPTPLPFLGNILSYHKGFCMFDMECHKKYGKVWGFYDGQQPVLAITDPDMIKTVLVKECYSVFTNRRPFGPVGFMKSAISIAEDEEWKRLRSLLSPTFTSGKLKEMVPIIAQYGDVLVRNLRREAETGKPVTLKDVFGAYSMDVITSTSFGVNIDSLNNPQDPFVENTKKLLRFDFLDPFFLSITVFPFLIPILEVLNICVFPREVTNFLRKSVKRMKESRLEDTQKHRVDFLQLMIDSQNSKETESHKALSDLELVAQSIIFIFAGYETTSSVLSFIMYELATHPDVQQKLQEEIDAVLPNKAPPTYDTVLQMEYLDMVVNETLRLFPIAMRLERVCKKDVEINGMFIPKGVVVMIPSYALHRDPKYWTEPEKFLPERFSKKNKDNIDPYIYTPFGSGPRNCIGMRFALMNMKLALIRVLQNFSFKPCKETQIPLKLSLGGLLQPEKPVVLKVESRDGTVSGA

In the case of CC(C)(N)C(=O)[O-].O.O=[N+]([O-])[O-].[Cu+2].c1cnc2c(c1)ccc1cccnc12 [Cu(II) complex, [Cu(phen)(C-dmg)(H2O)]NO3], the “Histopathological examination, all organs” value [1] was “no significant morphological changes”, the body weight [1] was “no significant reduction of body weight” and the Mortality ([1]; 14 days further observation) was “No mortality”. The “weight of vital organs” value ([1]; day 28) was “not significantly affected”, the site of injections ([1]; disappeared during the 14-day observation) was “some inflammation and induration” and the pIC50 [2] was 4.72 to 5.77. The “concentrations at which cytotoxicity is exhibited” value [3] was “over 3 μM”, the pIC50 ([3]; read-out: IC50 (cytotoxic concentration that kills 50% of the cells), resazurin assay) was 5.33 and the mice found dead ([4]; 8 mg/kg every other day up to 3 doses) was 2 out of 7. The tumor growth ([4]; 4, 6 and 8 mg/kg ip) was “significantly inhibited the growth of HK1 tumor”, the “tolerability / body weight” value ([4]; 4 and 6 mg/kg dose regimens) was “well tolerated with no significant body weight loss” and the “Histopathological examination of heart, liver, kidney and lung” value ([4]; all the groups) was “did not show any remarkable changes”. For the same compound, the “weight of vital organs” value ([4]; all treatment groups vs control) was “not significantly affected”, the pIC50 [5] was 4.99 and the pIC50 [6] was 5.26. For the same compound, the pIC50 [7] was 5.10.
